For data set [1], the system named is skin. Kind of data set: Tanning of the skin after topical application. It is filed as in vivo.
Excerpt: The tan will appear once it reaches the skin's cellular level whether a person is in the light or in total darkness.
The tanning process will continue, in the sun, in the shade, or total darkness, regardless of the environmental conditions. […] Also, the tan can be maintained for longer periods of time by daily use of a maintenance formula containing 3 wt % CoQ10 and 3 wt % vanillin in a lime emulsion.
The conditions of data set [2]: background; without the whiteness-preserving ingredients; cited from earlier work.
Data set [3] deals with skin. As to conditions: known sunless tanning ingredients; acts on dead skin cells; cited from earlier work.

The text below walks through data of patent US9060946B2, “Topical skin care formulations” (priority 2013, dated 2015).

For the compound `COc1cc(C=O)ccc1O` [vanillin], in the data set with skin [1], the “tanning / color development continues for up to” value is “up to 24 hours”. Also, the “color behaviour in aqueous emulsion products” value in data set [2] is given as “quickly degrades into various shades of brown”.
Turning to `COC1=C(OC)C(=O)C(C/C=C(\C)CC/C=C(\C)CC/C=C(\C)CC/C=C(\C)CC/C=C(\C)CC/C=C(\C)CC/C=C(\C)CC/C=C(\C)CC/C=C(\C)CCC=C(C)C)=C(C)C1=O` [CoQ10, coenzyme Q10], in data set [2], the “color behaviour in aqueous emulsion products” value is on record as “degrades the formulation into various shades of orange or brown”.
In the case of `O=C(CO)[C@H](O)CO` [erythrulose, D-erythrulose], the “how long the tan color lasts” value in the data set on skin [3] is “only a few days”.
